According to the supplement of paper PMC10307832:

Legend:
Assay in all cases: relative viability (nuclei count vs DMSO), 5 days (fraction); higher = more cells survive
AT-7519 = compound: O=C(NC1CCNCC1)c1n[nH]cc1NC(=O)c1c(Cl)cccc1Cl [AT-7519]
Method in brief: (§1)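 A plate was accepted only when its control CV was below 25% and the cells had doubled at least once. Viability is defined from nuclear counts as treated wells divided by vehicle wells, with the median taken across plates. That median covers lung cancer cell lines grown in 1536-well plates, dosed by pinning at five √10-spaced library-drug concentrations, and counted in MetaXpress from 4× Hoechst images after 5 days.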

[1] = compound: C1=CC2=C(C=C(C(=C2N=C1)O)N=NC3=CC4=C(C=C3)C=C(C=C4)S(=O)(=O)O)S(=O)(=O)O
Method in brief: as §1

AT-7519 + Pemetrexed = compound: O=C(NC1CCNCC1)c1n[nH]cc1NC(=O)c1c(Cl)cccc1Cl [AT-7519] + Nc1nc2[nH]cc(CCc3ccc(C(=O)N[C@@H](CCC(=O)O)C(=O)O)cc3)c2c(=O)[nH]1 [Pemetrexed] (partner 0.2 µM)
Method in brief: (§2)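 Lung cancer cell lines were seeded in 1536-well plates and dosed by pin tool the next day, with either a single drug or a fixed anchor-drug dose combined with five library-drug doses (not always all listed) spaced in √10 steps. Five days later, one step fixed the cells and stained their nuclei (final 0.05% Triton X-100, 1% formaldehyde, 1 ug/ml Hoechst), and nuclei were counted on 4× images. Relative viability is the nuclei count in treated wells divided by the count in vehicle wells, and each value is the median of duplicate plates.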

[2] = compound: C1=CC2=C(C=C(C(=C2N=C1)O)N=NC3=CC4=C(C=C3)C=C(C=C4)S(=O)(=O)O)S(=O)(=O)O + COc1cccc2cc(-c3nc([C@H]4CC[C@H](C(=O)O)CC4)n4ncnc(N)c34)[nH]c12 [OSI-027] (partner 0.5 µM)
Method in brief: as §2

| Cell Line | relative viability (AT-7519; 0.01 µM) | relative viability (AT-7519; 0.03162 µM) | relative viability (AT-7519; 0.3162 µM) | relative viability (AT-7519; 1 µM) | relative viability ([1]; 0.08 µM) | relative viability ([1]; 0.253 µM) | relative viability ([1]; 0.8 µM) | relative viability ([1]; 2.53 µM) | relative viability ([1]; 8 µM) | relative viability (AT-7519 + Pemetrexed; first compound 0.01 µM) | relative viability (AT-7519 + Pemetrexed; first compound 0.03162 µM) | relative viability (AT-7519 + Pemetrexed; first compound 0.3162 µM) | relative viability (AT-7519 + Pemetrexed; first compound 1 µM) | relative viability ([2]; first compound 0.08 µM) | relative viability ([2]; first compound 0.253 µM) | relative viability ([2]; first compound 0.8 µM) | relative viability ([2]; first compound 2.53 µM) | relative viability ([2]; first compound 8 µM) |
| --- | --- | --- | --- | --- | --- | --- | --- | --- | --- | --- | --- | --- | --- | --- | --- | --- | --- | --- |
| 201T | 1.02 | 0.988 | 1.04 | 1.11 | 1.01 | 0.995 | 0.985 | 1.03 | 0.982 | 0.343 | 0.311 | 0.288 | 0.331 | 0.804 | 0.687 | 0.684 | 0.761 | 0.735 |
| A549 | 0.978 | 0.903 | 0.931 | 0.792 | 1.1 | 0.986 | 0.926 | 1 | 0.884 | – | – | – | – | – | – | – | – | – |
| A-427 | 1.11 | 1.02 | 0.944 | 0.723 | 1.05 | 0.971 | 0.936 | 0.963 | 0.842 | 1.06 | 0.965 | 1.07 | 1.01 | 0.402 | 0.447 | 0.45 | 0.41 | 0.5 |
| ABC-1 | 1.1 | 0.876 | 0.787 | 0.699 | 0.923 | 0.743 | 0.744 | 1.08 | 0.776 | – | – | – | – | 0.435 | 0.336 | 0.463 | 0.499 | 0.64 |
| BEN | 0.917 | 0.876 | 1.15 | 0.887 | 0.976 | 0.933 | 0.895 | 0.986 | 0.777 | 0.713 | 0.766 | 0.823 | 0.706 | 0.289 | 0.303 | 0.244 | 0.297 | 0.292 |
| CAL-12T | 0.98 | 1.06 | 0.552 | 0.256 | 1.08 | 0.986 | 0.928 | 1.09 | 0.932 | 1.23 | 1.11 | 0.584 | 0.147 | 0.592 | 0.585 | 0.577 | 0.819 | 0.831 |
| COR-L23 | 1.12 | 0.865 | 0.936 | 0.424 | 1.09 | 1.04 | 1 | 1.05 | 0.946 | 0.182 | 0.184 | 0.211 | 0.173 | 0.884 | 0.781 | 0.725 | 0.612 | 0.802 |
| COR-L 105 | 0.924 | 0.933 | 0.769 | 0.54 | 0.988 | 0.78 | 0.95 | 1.06 | 0.865 | 1.26 | 1.08 | 1.07 | 0.657 | 0.657 | 0.576 | 0.788 | 0.635 | 0.722 |
| Calu-6 | 1.06 | 0.943 | 1.11 | 0.593 | 1 | 1.02 | 0.962 | 1.01 | 1.01 | – | – | – | – | – | – | – | – | – |
| ChaGo-K-1 | 1.01 | 0.926 | 0.996 | 0.942 | 1.03 | 0.905 | 0.937 | 1.02 | 0.901 | 0.27 | 0.267 | 0.276 | 0.254 | 0.641 | 0.555 | 0.519 | 0.556 | 0.382 |
| EBC-1 | 0.934 | 0.885 | 0.923 | 0.645 | 1.04 | 0.933 | 0.941 | 0.99 | 1.07 | – | – | – | – | – | – | – | – | – |
| EKVX | 0.948 | 0.911 | 0.939 | 1.03 | 0.973 | 0.918 | 0.905 | 1.01 | 0.864 | 0.423 | 0.342 | 0.246 | 0.463 | 0.691 | 0.682 | 0.684 | 0.721 | 0.539 |
| EMC-BAC-2 | 0.954 | 0.934 | 0.996 | 1.11 | 0.916 | 1.02 | 1.03 | 1.01 | 0.93 | 0.464 | 0.442 | 0.438 | 0.514 | 0.408 | 0.397 | 0.386 | 0.363 | 0.343 |
| EPLC-272H | 0.889 | 0.84 | 0.844 | 0.761 | 1.03 | 0.901 | 0.949 | 0.879 | 0.743 | 0.268 | 0.328 | 0.303 | 0.0761 | 0.298 | 0.258 | 0.258 | 0.283 | 0.294 |
| H3255 | 1.04 | 0.96 | 0.969 | 0.838 | 1.01 | 0.965 | 1.01 | 1.03 | 1.04 | 0.559 | 0.589 | 0.499 | 0.503 | 0.544 | 0.633 | 0.595 | 0.567 | 0.655 |
| HARA | 0.86 | 0.897 | 1.07 | 0.892 | 1.03 | 0.871 | 0.995 | 0.953 | 0.806 | 0.234 | 0.298 | 0.25 | 0.296 | 0.633 | 0.524 | 0.513 | 0.522 | 0.48 |
| HCC-15 | 1.03 | 0.911 | 0.897 | 0.754 | 1.14 | 1 | 1.03 | 0.97 | 0.963 | 0.217 | 0.225 | 0.205 | 0.204 | 0.75 | 0.675 | 0.627 | 0.63 | 0.65 |
| HCC-44 | 0.992 | 0.99 | 1.05 | 1.05 | 1.02 | 0.959 | 0.952 | 1.05 | 1 | 0.622 | 0.696 | 0.65 | 0.703 | – | 0.651 | 0.5 | 0.55 | 0.601 |
| HCC-78 | 0.999 | 0.93 | 1.06 | 1.05 | 1.03 | 0.957 | 0.894 | 1.03 | 0.95 | 0.916 | 0.885 | 0.88 | 0.884 | 0.436 | 0.368 | 0.417 | 0.346 | 0.348 |
